From ChEMBL document CHEMBL4325861, “Naphthalene, a versatile platform in medicinal chemistry: Sky-high perspective” (Eur J Med Chem, 2019)
pEC50, pIC50, pKi: −log10 of the molar value. ≈ marks a conversion by molar mass, not a printed value.

Experiments:
Neutrophil [1] = experiment: Anti-inflammatory activity in human neutrophils assessed as inhibition of fMLP/cytochalasin B-induced superoxide anion generation preincubated for 5 mins followed by fMLP/cytochalasin B addition and measured after 10 mins by spectrophotometric method; format: functional, cell-based
Neutrophil [2] = experiment: Anti-inflammatory activity in human neutrophils assessed as inhibition of fMLP/cytochalasin B-induced elastase release preincubated for 5 mins followed by fMLP/cytochalasin B addition; format: functional, cell-based
HeLa = experiment: Antiproliferative activity against human HeLa cells; format: functional, cell-based
Rattus norvegicus [3] = experiment: Anti-inflammatory activity in rat assessed as inhibition of carrageenan-induced paw edema relative to control; format: functional
THP-1 = experiment: Anti-inflammatory activity in human THP1 cells assessed as reduction in TNF production; format: functional, cell-based
P388 = experiment: Antiproliferative activity against mouse P388 cells; format: functional, cell-based
[4] = target: Prostaglandin G/H synthase 2 (Homo sapiens) (UniProt P35354); experiment: Inhibition of COX2 (unknown origin) at 10 uM relative to control
Chain of Prostaglandin G/H synthase 2 (Homo sapiens) (P35354 whole entry): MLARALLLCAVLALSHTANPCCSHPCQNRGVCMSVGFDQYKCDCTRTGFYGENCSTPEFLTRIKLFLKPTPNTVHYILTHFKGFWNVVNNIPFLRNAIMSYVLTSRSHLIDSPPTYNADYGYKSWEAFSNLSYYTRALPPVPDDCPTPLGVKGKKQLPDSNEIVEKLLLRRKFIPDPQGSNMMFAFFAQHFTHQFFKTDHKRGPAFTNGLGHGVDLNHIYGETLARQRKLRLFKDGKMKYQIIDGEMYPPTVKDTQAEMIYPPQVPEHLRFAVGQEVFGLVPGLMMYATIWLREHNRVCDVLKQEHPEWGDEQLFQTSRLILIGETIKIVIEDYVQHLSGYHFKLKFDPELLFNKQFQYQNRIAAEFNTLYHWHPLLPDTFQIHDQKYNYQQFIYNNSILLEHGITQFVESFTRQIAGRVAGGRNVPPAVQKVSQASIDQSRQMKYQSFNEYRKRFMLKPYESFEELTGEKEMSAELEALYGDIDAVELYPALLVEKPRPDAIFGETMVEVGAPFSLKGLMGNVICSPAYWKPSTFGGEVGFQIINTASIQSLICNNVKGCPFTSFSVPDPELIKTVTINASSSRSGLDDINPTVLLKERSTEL

[5] = target: Prostaglandin G/H synthase 1 (Homo sapiens) (UniProt P23219); experiment: Inhibition of COX1 (unknown origin) at 10 uM relative to control
Chain of Prostaglandin G/H synthase 1 (Homo sapiens) (P23219 whole entry): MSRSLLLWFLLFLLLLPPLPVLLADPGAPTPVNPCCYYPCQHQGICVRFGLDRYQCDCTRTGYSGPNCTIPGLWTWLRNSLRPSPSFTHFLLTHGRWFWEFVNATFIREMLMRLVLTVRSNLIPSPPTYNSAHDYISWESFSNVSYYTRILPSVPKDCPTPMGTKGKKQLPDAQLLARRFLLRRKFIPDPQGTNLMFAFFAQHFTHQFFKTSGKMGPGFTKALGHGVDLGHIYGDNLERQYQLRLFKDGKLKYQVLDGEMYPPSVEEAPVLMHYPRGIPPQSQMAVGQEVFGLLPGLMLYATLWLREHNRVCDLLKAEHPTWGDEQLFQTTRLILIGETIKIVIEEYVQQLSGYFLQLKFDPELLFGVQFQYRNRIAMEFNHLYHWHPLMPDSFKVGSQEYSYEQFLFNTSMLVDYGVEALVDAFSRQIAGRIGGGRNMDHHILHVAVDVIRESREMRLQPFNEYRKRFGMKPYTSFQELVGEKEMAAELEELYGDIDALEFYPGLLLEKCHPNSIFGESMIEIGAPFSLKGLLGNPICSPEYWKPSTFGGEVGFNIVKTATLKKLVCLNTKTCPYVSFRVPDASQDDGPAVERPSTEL

[6] = Inhibition of Human cytomegalovirus protease; design: species or system Human betaherpesvirus 5
A549 = experiment: Antiproliferative activity against human A549 cells; format: functional, cell-based
HT-29 = experiment: Antiproliferative activity against human HT-29 cells; format: functional, cell-based
[7] = Antiproliferative activity against human MEL28 cells; format: functional, cell-based; details: SK-MEL-28
Chymase = Chymase (Homo sapiens, UniProt P23946); experiment: Inhibition of chymase in human mast cells using Suc-Ala-Ala-Pro-Phe-(p-nitroanilide) as substrate for 15 mins by spectrophotometric method; format: cell-based
Chain of Chymase (P23946 whole entry): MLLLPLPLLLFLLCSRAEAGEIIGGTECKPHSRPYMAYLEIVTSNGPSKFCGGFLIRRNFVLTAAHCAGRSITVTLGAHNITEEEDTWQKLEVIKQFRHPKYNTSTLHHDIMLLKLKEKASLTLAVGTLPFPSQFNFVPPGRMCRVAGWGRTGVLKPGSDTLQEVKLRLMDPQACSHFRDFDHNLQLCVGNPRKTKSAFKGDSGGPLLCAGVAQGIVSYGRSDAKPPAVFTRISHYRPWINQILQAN

HL-60 = experiment: Antiproliferative activity against human HL60 cells; format: functional, cell-based
[8] = system: Mycobacterium tuberculosis; experiment: Antimycobacterial activity against Mycobacterium tuberculosis; format: functional
HepG2 = experiment: Antiproliferative activity against human HepG2 cells; format: functional, cell-based
[9] = system: Mycobacterium tuberculosis; experiment: Antimycobacterial activity against Mycobacterium tuberculosis H37Ra; format: functional
Pichia kudriavzevii = experiment: Antifungal activity against Candida krusei; format: functional
Cryptococcus neoformans = experiment: Antifungal activity against Cryptococcus neoformans; format: functional
[10] = system: Human immunodeficiency virus 1; experiment: Antiviral activity against HIV1 infected in human MT4 cells; format: functional, organism-based; details: Human immunodeficiency virus 1, MT4
[11] = system: Mycobacterium tuberculosis; experiment: Antimycobacterial activity against Mycobacterium tuberculosis H37Rv; format: functional, organism-based
[12] = Induction of apoptosis in human NB4.437r cells by Annexin V/propidium iodide staining based flow cytometry; format: functional, cell-based
Mycobacterium avium = experiment: Antimycobacterial activity against Mycobacterium avium; format: functional
Angiotensin II receptor = Angiotensin II receptor (Homo sapiens, UniProt P30556+P50052); experiment: Antagonist activity at angiotensin-2 receptor (unknown origin); format: protein assay
[13] = target: Protein farnesyltransferase (Homo sapiens, UniProt P49354+P49356); experiment: Inhibition of FTase (unknown origin) assessed as reduction in transfer of [3H]FPP to Ki-Ras; format: protein-complex assay
Aspergillus niger = experiment: Antifungal activity against Aspergillus niger by disk diffusion method; format: functional
Rattus norvegicus [14] = experiment: Anti-inflammatory activity in Wistar albino rat assessed as inhibition of carrageenan-induced paw edema at 100 mg/kg, po via gavage measured after 1 hr by plethysmometric method relative to control; format: functional
[15] = target: Prostaglandin G/H synthase 2 (Homo sapiens, UniProt P35354); experiment: Inhibition of COX2 (unknown origin)
Chain of Prostaglandin G/H synthase 2 (P35354 whole entry): as the sequence (P35354 whole entry) above

Rattus norvegicus [16] = experiment: Anti-inflammatory activity in rat assessed as inhibition of carrageenan-induced paw edema after 4 hrs relative to control; format: functional
[17] = Inhibition of Norovirus RNA-dependent RNA polymerase
[18] = system: Human immunodeficiency virus 1; experiment: Antiviral activity against HIV1; format: functional, organism-based
MT4 = experiment: Antiproliferative activity against human MT4 cells; format: functional
Staphylococcus aureus [19] = experiment: Antibacterial activity against Staphylococcus aureus assessed as zone of inhibition; format: functional
Alternaria alternata = experiment: Antifungal activity against Alternaria alternata assessed as zone of inhibition; format: functional
Staphylococcus aureus [20] = experiment: Antibacterial activity against Staphylococcus aureus; format: functional
Candida albicans = experiment: Antifungal activity against Candida albicans; format: functional

COc1cc(C(C)=O)c(O)c2ccc(O)cc12
IC50 (Neutrophil [1]): 1.9 µg/mL (≈ 8.18 µM) | IC50 (Neutrophil [2]): 3.17 µg/mL (≈ 13.6 µM)

O=C1c2cccc3cc([N+](=O)[O-])cc(c23)C(=O)C1CN1CCCC1 (centres undefined)
IC50 (HeLa): 0.3 µg/mL (≈ 0.925 µM)

O=C(CCNc1c(Br)cc(Br)cc1C(=O)O)Nc1ccc2ccccc2c1
inhibition (INH) (Rattus norvegicus [3]): 67.37%

Nc1ccc(-c2ccc(CC3CCOC3)c(O)c2)c2ccccc12 (centres undefined)
pIC50 (THP-1): > 5.00

CN(C)CCNC(=O)c1cc2c3ccccc3sc2c2ccccc12
pIC50 (P388): 6.37

COc1ccc2c(c1)CCC(NS(C)(=O)=O)C2 (centres undefined)
inhibition [4]: 50% | inhibition [5]: 87%

COc1ccc2cc(C(C)C(=O)NC(=S)Nc3ccc(CS(=O)(=O)Nc4cc(C)on4)cc3)ccc2c1 (centres undefined)
inhibition (INH) (Rattus norvegicus [3]): 89.77%

O=C(O)c1ccc(CNc2ccc3c(/C=C/c4ccc5ccc(Cl)cc5n4)cccc3c2)cc1
pIC50 [6]: 5.57

C(=C/c1ccc2ccccc2c1)/c1ccc2ccccc2c1
pIC50 (P388): 5.19 | pIC50 (A549): 5.13 | pIC50 (HT-29): 5.27 | pIC50 [7]: 5.27

O=C(c1ccc2ccccc2c1)C(c1cccc2ccccc12)P(=O)(O)O (centres undefined)
pKi (Chymase): 8.64

COc1cc2c3c([nH]c2cc1Cl)C(=O)c1ccccc1C3=O
pIC50 (HL-60): 4.27

CSc1ncc(-n2nc(C(C)C)cc2NC(=O)Nc2ccc(-c3ccc(CN(C)C)nc3)c3ccccc23)cn1
pIC50 (THP-1): > 5.00

CN(C)CC1C(=O)c2cccc3cc([N+](=O)[O-])cc(c23)C1=O (centres undefined)
IC50 (HeLa): 0.15 µg/mL (≈ 0.503 µM)

CCN(CC)CC1C(=O)c2cccc3cc([N+](=O)[O-])cc(c23)C1=O (centres undefined)
IC50 (HeLa): 2.5 µg/mL (≈ 7.66 µM)

COc1ccc2cc([C@H](C)C(=O)O)ccc2c1 [NAPROXEN]
inhibition (INH) (Rattus norvegicus [3]): 85.02%

Nc1ccc(-c2ccc(Cc3cccnc3)c(O)c2)c2ccccc12
pIC50 (THP-1): > 5.00

COc1nc2ccc(Br)cc2cc1[C@H](c1ccccc1)N(C(=O)CN1CCOCC1)[C@@H](C)c1cccc2ccccc12
MIC [8]: 60 µg/mL (≈ 96.1 µM)

COc1cc(OC)c(C2=CCN(C)CC2)c(O)c1C(=O)/C=C/c1ccc2ccccc2c1
pIC50 (HepG2): 5.19

CC(C)c1cccc(OC(=O)Nc2ccc(-c3ccc(CN4CCOCC4)nc3)c3ccccc23)c1
pIC50 (THP-1): > 5.00

O=C1C(O)=C(C(Nc2ccccn2)c2ccccc2O)C(=O)c2ccccc21 (centres undefined)
MIC [9]: 25 µg/mL (≈ 67.1 µM)

COc1ccc2[nH]c3c(c2c1)C(=O)c1ccccc1C3=O
pIC50 (HL-60): 4.34

Nc1nnc(COc2cccc3ccccc23)o1
MIC (Pichia kudriavzevii): 64 µg/mL (≈ 265 µM)

NS(=O)(=O)c1ccc2c(c1)-c1nnsc1CC2
MIC (Cryptococcus neoformans): 0.53 µg/mL (≈ 1.98 µM)

COc1ccc(/C=C\c2ccc3ccccc3c2)cc1O
pIC50 (P388): 5.19 | pIC50 (A549): 5.13 | pIC50 (HT-29): 5.27 | pIC50 [7]: 5.27

COc1ccccc1C1CC(Nc2ccc3ccccc3c2)=NN1C(C)=O (centres undefined)
inhibition (INH) (Rattus norvegicus [3]): 67.85%

O=C(COc1ccc2ccccc2c1)NCc1nnc(SCc2nc3ccccc3[nH]2)n1-c1ccccc1
EC50 [10]: 0.2 µg/mL (≈ 0.384 µM)

CC(=O)c1ccnc(C2=CC(=O)c3ccccc3C2=O)c1
MIC [11]: 3.13 µg/mL (≈ 11.3 µM)

O=C(O)c1ccc2cc(-c3ccc(O)c(C45CC6CC(CC(C6)C4)C5)c3)ccc2c1 [O-DEMETHYLATED ADAPALENE]
pEC50 [12]: 4.92

O=C(Nc1cccc(F)c1)c1cccc2ccccc12
MIC (Mycobacterium avium): 59 µM (≈ 15.7 µg/mL)

CCC(Cl)Cc1nc(CO)cn1Cc1ccc2cc(-c3nnn[nH]3)ccc2c1 (centres undefined)
IC50 (Angiotensin II receptor): 0.2 µM

O=C1c2cccc3cc([N+](=O)[O-])cc(c23)C(=O)C1CN1CCCCC1 (centres undefined)
IC50 (HeLa): 2 µg/mL (≈ 5.91 µM)

CSCC[C@H](NC(=O)c1cccc2cc(NC[C@@H](N)CS)ccc12)C(=O)O
pIC50 [13]: 7.77

O=c1[nH]nc(COc2cccc3ccccc23)o1
MIC (Pichia kudriavzevii): 64 µg/mL (≈ 264 µM)

CN(C)CCNC(=O)c1cc2c3c(cccc3c1)Sc1ccccc1-2
pIC50 (P388): 6.75

CN1CCC(N)CC1c1ccc(-c2ccc(N)c3ccccc23)cn1 (centres undefined)
pIC50 (THP-1): > 5.00

C(=C\c1ccc2ccccc2c1)/c1ccc2ccccc2c1
pIC50 (P388): 5.19 | pIC50 (A549): 5.13 | pIC50 (HT-29): 5.27 | pIC50 [7]: 5.27

c1ccc(-c2ccc3c(c2)CCCC3)cc1
MIC (Aspergillus niger): 780 µg/mL (≈ 3740 µM)

CC(=O)Oc1ccc2c(c1)c1c(n2C)C(=O)c2ccccc2C1=O
pIC50 (HL-60): 6.00

COc1ccc2cc(-c3nnc(-c4cc(Cl)cc(Cl)c4)o3)ccc2c1
inhibition in vivo at 100 mg/kg (Rattus norvegicus [14]): 71.1%

O=C(Cc1cccc2c1CCCC2)N/N=C/c1ccc(O)c([N+](=O)[O-])c1
IC50 [11]: 3.07 µg/mL (≈ 8.69 µM)

CC(=O)Oc1ccc2[nH]c3c(c2c1)C(=O)c1ccccc1C3=O
pIC50 (HL-60): 5.88

COc1ccc2cc(CCS(C)(=O)=O)ccc2c1
inhibition [4]: 65% | inhibition [5]: 29% | pIC50 [15]: 5.00

Sc1nnc(COc2ccc3ccccc3c2)o1
MIC (Pichia kudriavzevii): 64 µg/mL (≈ 248 µM)

COc1ccc(/C=C/c2ccc3ccccc3c2)cc1O
pIC50 (P388): 5.19 | pIC50 (A549): 5.13 | pIC50 (HT-29): 5.27 | pIC50 [7]: 5.27

COc1cc(/C=C/c2ccc3ccccc3c2)cc(OC)c1OC
pIC50 (P388): 5.19 | pIC50 (A549): 5.13 | pIC50 (HT-29): 5.27 | pIC50 [7]: 5.27

COc1nc2ccc(Br)cc2cc1[C@@H](c1ccccc1)[C@@](O)(CCN(C)C)c1cccc2ccccc12 [BEDAQUILINE]
MIC [8]: 0.06 µg/mL (≈ 0.108 µM)

Oc1c(C2=NNC(c3ccc(Br)cc3)C2)ccc2ccccc12 (centres undefined)
inhibition (INH) (Rattus norvegicus [16]): 68.96%

Cc1nc(/N=N/c2cc(S(=O)(=O)O)c3cc([N+](=O)[O-])cc(S(=O)(=O)O)c3c2)cc(C=O)c1O
pIC50 [17]: 6.35

CN(C)CCOc1ccc2c(c1)c1c(n2C)C(=O)c2ccccc2C1=O
pIC50 (HL-60): 6.55

O=[N+]([O-])c1ccc2c(c1)-c1nnsc1CC2
MIC (Cryptococcus neoformans): 0.53 µg/mL (≈ 2.27 µM)

CC(C)C(NC(=O)COc1ccc2ccccc2c1)C(=O)NN (centres undefined)
EC50 [18]: 42 µg/mL (≈ 133 µM)

N#CCCCOc1ccc(-c2ccc(N)c3ccccc23)cn1
pIC50 (THP-1): > 5.00

CS(=O)(=O)Nc1cc(Cc2ccc(Cl)cc2)c2ccccc2c1
pIC50 [15]: 5.00

CC(=O)Oc1ccc2c(c1)c1c(n2CCN(C)C)C(=O)c2ccccc2C1=O
pIC50 (HL-60): 6.77

COC(=O)C(NC(=O)COc1ccc2ccccc2c1)C(C)C (centres undefined)
CC50 (MT4): 42 µM

COc1cc(OC)c(C2=CCN(C)CC2)c(O)c1C(=O)/C=C/c1cccc2ccccc12
pIC50 (HepG2): 5.19

COc1cc(/C=C\c2ccc3ccccc3c2)cc(OC)c1OC [NAPHTHYLCOMBRETASTATIN]
pIC50 (P388): 5.19 | pIC50 (A549): 5.13 | pIC50 (HT-29): 5.27 | pIC50 [7]: 5.27

Nc1cccc2cccc(/N=C3/CCC/C(=N\c4cccc5cccc(N)c45)C3)c12
inhibition zone (IZ) (Staphylococcus aureus [19]): 10 mm | inhibition zone (IZ) (Alternaria alternata): 10.5 mm

CC(C)NC(=N)c1ccc2c(c1)nc(-c1ccc3c(c1)C(C)(C)CCC3(C)C)n2Cc1ccc2ccccc2c1
MIC (Staphylococcus aureus [20]): 0.78 µg/mL (≈ 1.48 µM) | MIC (Candida albicans): 0.78 µg/mL (≈ 1.48 µM)

COc1ccccc1NC(=O)c1cccc2ccccc12
MIC (Mycobacterium avium): 54 µM (≈ 15 µg/mL)
